For one assay, the system named is H. influenzae Q1. Put plainly: MIC against H. influenzae Q1, alone and with subinhibitory concentrations of a second agent.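 Also: combinations paired PDF inhibitors with macrolides, one class added below its own MIC to test whether the MIC of the other class dropped.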 The assay is classed as cell-based, Haemophilus influenzae. Conditions: H. influenzae Q1.
The subject of another assay is S. pneumoniae 1629. Put plainly: MIC against S. pneumoniae 1629, alone and with subinhibitory concentrations of a second agent. Type of assay: cell-based, Streptococcus pneumoniae. The following applies: for decrease of MIC by subinhibitory concentrations of Compound (1b): S. pneumoniae; for MIC, antibiotic alone: single agent; for MIC: Streptococcus pneumoniae, 1629, S. pneumoniae 1629, no second agent, read-out: MIC, single agent.

The subject of the next assay is S. aureus WCUH29. Put plainly: MIC against S. aureus WCUH29, alone and with subinhibitory concentrations of a second agent. The following applies: for MIC, antibiotic alone: single agent; for decrease of MIC by subinhibitory concentrations of Compound (1a): S. aureus, Example 3. The assay is classed as cell-based, Staphylococcus aureus.
Where [1] appears, read: S. pneumoniae 1629, +0.06 ug/mL Compound (1b).
[2] abbreviates: S. aureus WCUH29, +1 ug/mL Compound (1a).
[3] abbreviates: S. pneumoniae 1629, +[…] Compound (1b).
[4] abbreviates: S. aureus WCUH29, +0.5 ug/mL Compound (1a).

Molecules are shown by their SMILES. Values after ≈ are worked out from the molar mass of the structure shown.

A word on the MIC: it is the lowest concentration found to suppress growth.

Consider `CCCCC[C@H](CN(O)C=O)C(=O)NNc1nnc2cccc(C)c2n1` [Compound (1c), N-hydroxy((2R)-2-{[2-(5-methyl-1,2,4-benzotriazin-3-yl)hydrazino]carbonyl}heptyl)formamide], for which, in the assay with H. influenzae Q1 (+0.25 ug/m Azithromycin), the “MIC, antibiotic with 0.25 ug/m (¼ MIC) of Azithromycin” value is 0.5 µg/mL and the “fold decrease MIC, antibiotic with 0.25 ug/m (¼ MIC) of Azithromycin” value was “[2] fold”. Besides, in the assay on H. influenzae Q1 (+0.5 ug/mL Azithromycin), the “MIC, antibiotic with 0.5 ug/mL (½ MIC) of Azithromycin” value was 0.125 µg/mL and the “fold decrease MIC, antibiotic with 0.5 ug/mL (½ MIC) of Azithromycin” value was “[8] fold”. In addition, the “MIC, antibiotic alone” value in the assay with H. influenzae Q1 (single agent (Example 8)) was 1 µg/mL (≈ 2.77 µM).

Turning to `CC[C@H]1OC(=O)[C@H](C)[C@@H](O[C@H]2C[C@@](C)(OC)[C@@H](O)[C@H](C)O2)[C@H](C)[C@@H](O[C@@H]2O[C@H](C)C[C@H](N(C)C)[C@H]2O)[C@](C)(O)C[C@@H](C)C(=O)[C@H](C)[C@@H](O)[C@]1(C)O` [Erythromycin, erythromycin], the “decrease of MIC by subinhibitory concentrations of Compound (1b)” value in the assay with S. pneumoniae 1629 was 4-16 fold. Also, the “MIC, antibiotic with 0.06 ug/mL (¼ MIC) of Compound (1b)” value with S. pneumoniae 1629 (setting [1]) stood at 0.008 µg/mL. Moreover, the “MIC, antibiotic alone” value against S. pneumoniae 1629 (S. pneumoniae 1629) came out at 0.03 µg/mL (≈ 0.0409 µM); in the assay with S. aureus WCUH29 (S. aureus WCUH29) it was 0.25 µg/mL (≈ 0.341 µM); against H. influenzae Q1 (single agent (Example 7)), 8 µg/mL (≈ 10.9 µM). Besides, the MIC was 0.03 µg/mL (≈ 0.0409 µM) with S. pneumoniae 1629 and 0.25 µg/mL (≈ 0.341 µM) in the assay with S. aureus WCUH29 (Staphylococcus aureus, WCUH29, S. aureus WCUH29, no second agent, read-out: MIC, single agent). Further, the “MIC, antibiotic with 1 ug/mL (½ MIC) of Compound (1a)” value against S. aureus WCUH29 (setting [2]) was determined as 0.016 µg/mL; in the assay with H. influenzae Q1 (+1 ug/mL Compound (1a)), 1 µg/mL. For the same compound, the “decrease of MIC by subinhibitory concentrations of Compound (1a)” value in the assay on S. aureus WCUH29 is 2-16 fold. Besides, the “MIC, antibiotic with 0.5 ug/mL (¼ MIC) of Compound (1a)” value in the assay with H. influenzae Q1 (+0.5 ug/mL Compound (1a)) was 2 µg/mL.

Turning to `C/C(=C\C(=O)OCCCCCCCCC(=O)O)C[C@@H]1OC[C@H](C[C@@H]2O[C@H]2[C@@H](C)[C@H](C)O)[C@@H](O)[C@H]1O` [Mupirocin, mupirocin], in the assay with S. pneumoniae 1629, the “decrease of MIC by subinhibitory concentrations of Compound (1b)” value is listed as “no effect” and the minimum inhibitory concentration (MIC) is 0.5 µg/mL (≈ 0.999 µM). Further, in the assay on S. pneumoniae 1629 (setting [1]), the “MIC, antibiotic with 0.06 ug/mL (¼ MIC) of Compound (1b)” value worked out at 0.5 µg/mL and the “fold decrease MIC, antibiotic with 0.06 ug/mL (¼ MIC) of Compound (1b)” value was “[0] fold”. For the same compound, in the assay on S. pneumoniae 1629 (setting [3]), the “MIC, antibiotic with […] (½ MIC) of Compound (1b)” value turned out to be 0.5 µg/mL and the “fold decrease MIC, antibiotic with […] (½ MIC) of Compound (1b)” value was “[0] fold”. The “MIC, antibiotic alone” value against S. pneumoniae 1629 (S. pneumoniae 1629) amounted to 0.5 µg/mL (≈ 0.999 µM). Also, in the assay with S. aureus WCUH29 (setting [4]), the “MIC, antibiotic with 0.5 ug/mL (¼ MIC) of Compound (1a)” value is 0.125 µg/mL and the “fold decrease MIC, antibiotic with 0.5 ug/mL (¼ MIC) of Compound (1a)” value was “[0] fold”. Further, in the assay on S. aureus WCUH29 (setting [2]), the “MIC, antibiotic with 1 ug/mL (½ MIC) of Compound (1a)” value was 0.125 µg/mL and the “fold decrease MIC, antibiotic with 1 ug/mL (½ MIC) of Compound (1a)” value was “[0] fold”. Further, in the assay on S. aureus WCUH29 (S. aureus WCUH29), the “MIC, antibiotic alone” value came out at 0.125 µg/mL (≈ 0.25 µM). In the assay on S. aureus WCUH29, the “decrease of MIC by subinhibitory concentrations of Compound (1a)” value is recorded as “no effect”.
